The values that follow come from patent publication US10385024B2, “Compounds and methods for inhibiting NHE-mediated antiport in the treatment of disorders associated with fluid retention or salt overload and gastrointestinal tract disorders” (Ardelyx, Inc., priority 2012, dated 2019).

Holding throughout (format): in vivo, Sprague-Dawley rats
A short description of one data set: Plasma PK. The conditions noted are these: Sprague-Dawley; rat plasma, oral gavage, nominal dose 30 mg/kg, mean of n=3, sampling 0.5-4 h. Here is the method: Sprague-Dawley rats (n=3) were dosed with test compounds by oral gavage. Blood was collected at 0.5, 1, 2 and 4 h via retro-orbital bleeds and processed to plasma using K2EDTA as an anticoagulant. Plasma samples were treated with acetonitrile containing an internal standard and precipitated proteins were removed by centrifugation. Supernatants were analyzed by LC-MS/MS and compound concentrations were determined by interpolation from a calibration curve prepared in plasma. Accurate recovery of quality control samples were confirmed to accept each analytical run.

The test system of data set [1] is absorption of sodium from the intestinal lumen. Nature of the data set: Inhibition of intestinal sodium absorption (urinary sodium and fecal form). The conditions noted are these: rat; for response vs control in vivo at 3 mg/kg: 3 mg/kg oral gavage, urine 16 h post-dose, asterisks = significance vs vehicle (*P<0.05, **P<0.01, ***P<0.001), read-out: uNa (% of vehicle). Put shortly:
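Sprague-Dawley rats (8 weeks, n=6) dosed by oral gavage with compound or water vehicle (10 mL/kg) in late afternoon, then housed in metabolic cages. Over 16 h, urinary sodium measured by ion chromatography and expressed as % of vehicle mean; fecal form scored 1–5, averaged from two observations.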

The nature of data set [2]: Pharmacokinetic evaluation in bile. To be noted: bile duct cannulated rats, oral gavage, nominal dose 30 mg/kg, bile collected over 24 h, mean of n=3. Here is the method: Bile duct cannulated (BDC) Sprague-Dawley rats were dosed with test compounds by oral gavage and a single aliquot of bile was collected via cannula over the 24 h following dosing. Bile samples were treated with acetonitrile and precipitated proteins were removed by centrifugation. Some compounds required liquid-liquid extraction using MTBE. After centrifugation, samples were diluted as appropriate in mobile phase and analyzed by LC-MS/MS. The concentrations of compounds in bile were determined by interpolation from a standard calibration curve prepared in rat bile from untreated BDC rats. Accurate recovery of quality control samples was confirmed to accept each analytical run. Concentration in bile is reported in nM and represents the mean result from n=3 rats.

In “Plasma PK”, `CN1Cc2c(Cl)cc(Cl)cc2[C@H](c2cccc(S(=O)(=O)NCCOCCOCCNC(=O)CCC(CCC(=O)NCCOCCOCCNS(=O)(=O)c3cccc([C@@H]4CN(C)Cc5c(Cl)cc(Cl)cc54)c3)(CCC(=O)NCCOCCOCCNS(=O)(=O)c3cccc([C@@H]4CN(C)Cc5c(Cl)cc(Cl)cc54)c3)N(C)C)c2)C1` [Example 4, N^1,N^7-bis(2-(2-(2-(3-((S)-6,8-dichloro-2-methyl-1,2,3,4-tetrahydroisoquinolin-4-yl)phenylsulfonamido)ethoxy)ethoxy)ethyl)-4-(3-(2-(2-(2-(3-((S)-6,8-dichloro-2-methyl-1,2,3,4-tetrahydroisoquinolin-4-yl)phenylsulfonamido)ethoxy)ethoxy)ethylamino)-3-oxopropyl)-4-(dimethylamino)heptanediamide] gave an AUC of under 13 ng·h/mL and a Cmax of under 5 ng/mL. In data set [1] (fecal form score, scale 1 (normal pellet) to 5 (liquid fecal streams), group average, 3 mg/kg oral, 16 h post-dose, vehicle = 1), this compound displayed an FFS of 2. The response vs control in vivo at 3 mg/kg in data set [1] was under 35%. For the same compound, the “Concentration in Bile” value in data set [2] is recorded as 45 nM.

Turning to `CN1Cc2c(Cl)cc(Cl)cc2[C@H](c2cccc(S(=O)(=O)NCCOCCOCCNC(=O)CCC(N)(CCC(=O)NCCOCCOCCNS(=O)(=O)c3cccc([C@@H]4CN(C)Cc5c(Cl)cc(Cl)cc54)c3)CCC(=O)NCCOCCOCCNS(=O)(=O)c3cccc([C@@H]4CN(C)Cc5c(Cl)cc(Cl)cc54)c3)c2)C1` [Example 2, 4-amino-N^1,N^7-bis(2-(2-(2-(3-((S)-6,8-dichloro-2-methyl-1,2,3,4-tetrahydroisoquinolin-4-yl)phenylsulfonamido)ethoxy)ethoxy)ethyl)-4-(3-(2-(2-(2-(3-((S)-6,8-dichloro-2-methyl-1,2,3,4-tetrahydroisoquinolin-4-yl)phenylsulfonamido)ethoxy)ethoxy)ethylamino)-3-oxopropyl)heptanediamide], in the data set “Plasma PK”, the exposure (AUC) was under 12 ng·h/mL and the Cmax is under 4 ng/mL. Further, the response vs control in vivo at 3 mg/kg in data set [1] was under 35%. In addition, the “Concentration in Bile” value in data set [2] is 4 nM.
